PubChem BioAssay (NCI)
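Growth conditions: 96-well plates. Treatment: test compound, 48 hours, 5 concentrations. Analysis: linear interpolation between bracketing concentrations; unreached endpoints set to highest concentration. TGI: total growth inhibition.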 Where a SMILES comes first, the peptide text is derived from it. [ ]: non-standard residue; d: D form. pGlu = O=C1CC[CH](C(=O)O)N1

What was measured:
Experiment in all cases: inhibition of tumour cell growth, NCI panel, 48 h
HT29 colon = test system: HT29 colon
SK-OV-3 ovarian = test system: SK-OV-3 ovarian
CCRF-CEM leukemia = test system: CCRF-CEM leukemia
K-562 leukemia = test system: K-562 leukemia
UACC-62 melanoma = test system: UACC-62 melanoma
NCI-H23 lung = test system: NCI-H23 lung
OVCAR-5 ovarian = test system: OVCAR-5 ovarian
RXF 393 renal = test system: RXF 393 renal
SN12C renal = test system: SN12C renal
BT-549 breast = test system: BT-549 breast
UACC-257 melanoma = test system: UACC-257 melanoma

Row | Structure (SMILES) | TGI (HT29 colon) [µM] | TGI (SK-OV-3 ovarian) [µM] | TGI (CCRF-CEM leukemia) [µM] | TGI (K-562 leukemia) [µM] | TGI (UACC-62 melanoma) [µM] | TGI (NCI-H23 lung) [µM] | TGI (OVCAR-5 ovarian) [µM] | TGI (RXF 393 renal) [µM] | TGI (SN12C renal) [µM] | TGI (BT-549 breast) [µM] | TGI (UACC-257 melanoma) [µM]
1 | COC(NC(=O)Nc1ccc(C)cc1)(C(F)(F)F)C(F)(F)F | > 100 | 76.4 | > 100 | > 100 | > 100 | 89.8 | > 100 | 71.7 | > 100 | 83.5 | –
2 | COC(=O)[C@H](Cc1ccccc1)NC(=O)c1ccc(CNC(=O)/C=C/c2ccc(OCc3ccccc3)cc2)cc1 | > 58 | 59.9 | > 100 | > 100 | 18.6 | 33.5 | > 81.6 | 18.7 | 32.6 | 57.9 | 7.33
3 | Cn1c(-c2ccc(C=O)o2)ccc1-c1ccc(C=O)o1 | > 100 | > 100 | > 100 | > 100 | > 100 | > 100 | > 100 | > 100 | > 100 | > 100 | > 100
4 | CC1OC(OC2C(O)COC(OC3C(C)OC(OC4C(OC(=O)[C@]56CCC(C)(C)C[C@@H]5C5=CCC7[C@@]8(C)C[C@H](O)[C@H](OC9OC(CO)C(O)C(O)C9O)[C@@](C)(CO)[C@@H]8CC[C@@]7(C)[C@]5(C)CC6)OCC(O)C4O)C(O)C3O)C2O)C(O)C(O)C1O (some centres undefined) | 48.8 | 37.8 | 45.8 | > 100 | 40.1 | 51.2 | 36.4 | 33.5 | 44.4 | 45.7 | 37
5 | NS(=O)(=O)c1ccc(NC(=O)N/N=C/c2ccccc2[N+](=O)[O-])cc1 | > 100 | > 100 | > 100 | > 100 | > 100 | > 100 | > 100 | > 100 | > 100 | > 100 | > 100
6 | CO/C=C(/C(=O)OC)[C@@H]1C[C@@H]1c1ccc2ccccc2c1 | 48.6 | 59.4 | 63.1 | > 100 | > 100 | > 100 | > 100 | > 100 | > 100 | 50.5 | 71.9
7 | O=c1onc2n1-c1ccc(Cl)cc1C(=S)N1CSCC21 (centres undefined) | 53.1 | 49.4 | > 100 | > 100 | > 100 | – | > 100 | 89.2 | 88.2 | 67.4 | > 100
8 | CN(C)Cc1cc(Cl)c(O)c(CN(C)C)c1 | > 100 | > 100 | > 100 | > 100 | > 100 | > 100 | > 100 | > 100 | > 100 | > 100 | > 100
9 | CC(NC(=O)C1CCC(=O)N1)C(=O)N1CCCC1C(N)=O (stereo not drawn) ([pGlu]-Ala-Pro-NH2; configuration not given here) | > 100 | > 100 | > 100 | > 100 | > 100 | > 100 | > 100 | > 100 | > 100 | > 100 | –
10 | C#C[C@]1(O)CC[C@H]2[C@@H]3CCC4=C/C(=N\OCCN5CCCCC5)CC[C@]4(C)[C@H]3CC[C@@]21C | 22.4 | 31.2 | > 53.8 | 8.27 | 10.7 | 17.5 | 28.1 | 11.3 | 19.7 | 17.6 | 12.8
11 | O=C(Nc1ccccc1)N(CCN(Cc1ccccc1)C(=O)Nc1ccccc1)CCN(Nc1ccccc1)C(=O)Nc1ccccc1 | > 100 | > 100 | > 100 | > 100 | > 100 | > 100 | > 100 | > 100 | > 100 | > 100 | > 100
12 | C(=N\c1nc2cc3sc(/N=C/c4ccccc4)nc3cc2s1)/c1ccccc1 | > 100 | > 100 | 42 | > 100 | > 100 | > 100 | > 100 | > 100 | > 100 | > 100 | > 100
13 | Cc1ncn(-c2ccccc2O)c1C | > 100 | > 100 | > 100 | > 100 | > 100 | > 100 | > 100 | > 100 | > 100 | > 100 | > 100
14 | O=c1[nH]c(NCc2cccnc2)nc2nc[nH]c12 | > 100 | > 100 | > 100 | > 100 | > 100 | > 100 | > 100 | > 100 | > 100 | > 100 | > 100
15 | CCOC(=O)c1c(O)cn2c1[nH]c1cccc3cccc2c31 | > 100 | > 100 | > 100 | > 100 | > 100 | > 100 | > 100 | > 100 | > 100 | > 100 | > 100
16 | CC1C(C)(C)C23CC12C1(OCCO1)C3Br (centres undefined) | > 100 | > 100 | > 100 | > 100 | > 100 | > 100 | > 100 | > 100 | > 100 | > 100 | > 100
17 | C[C@H](Nc1nc(N)c(N=O)c(=O)n1C)C(=O)O | > 10 | > 10 | > 10 | > 10 | > 10 | > 10 | > 10 | > 10 | > 10 | > 10 | > 10
